In patent US20250136578A1 (Kolm Therapeutics Inc., priority 2023, published 2025):

Tests used:
Type in all cases: cell-based
VCaP cells = assay: VCaP growth inhibition assay (CTG); settings: Homo sapiens, 216 h, 30 pM R1881, 9 days
Outline: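 VCaP cells in phenol red-free DMEM with 5% charcoal-stripped serum were stimulated with 30 pM R1881 (final) and treated with compound from 100 nM to 10 fM final (1:5 dilutions) for 9 days at 37 °C. Viability was read by CellTiter-Glo luminescence, and IC50 came from 4-parameter logistic fits.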

HEK-293 cells = assay: HEK-293 growth inhibition assay (CTG); settings: Homo sapiens, HEK293, 72 h, 3 days
Experimental: HEK-293 cells (ATCC Cat #CRL-1573) are plated at 3×10^3 cells per well of a white plastic 96-well cluster plate (Thermo Scientific Nunc Cat #165306) in 200 uL DMEM (ATCC Cat #30-2002) media with 10% FBS (Gibco Cat #26140-079). Cluster plates are returned to the incubator (37*C/5% CO2) for 24 hours prior to treatment. Compounds (200X) were added to each well in a volume of 1 uL, with serial dilutions (1:5) from 2 mM to 200 pM (final concentrations in well are 10 uM to 1 pM). Cluster plates are returned to the incubator for 3 days.
After the 3-day treatment period, 100 uL media was removed from each well by aspiration and 100 uL room temperature CTG reagent (Promega Cat #G7573) is added back to each well. The cluster plates are placed on a shaker and incubated at room temperature for 20 minutes. Following this shaking/incubation, cluster plates are read on a luminometer (BMG ClarioStar). IC50 values are obtained by graphing the RLU data vs. compound concentration with nonlinear regression 4-parameter logistic curves (GraphPad Prism).

AR / CBP ternary complex = AR / CBP ternary complex (Homo sapiens, UniProt P10275+Q92793); assay: Ternary complex formation assay (sandwich ELISA, AR capture, CBP antibody detection) in VCaP cell lysates; settings: treated 1.5 hours, rabbit CBP or p300 antibody detection, average, read-out: Average Ternary Complex
Outline: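 VCaP cells in 5% charcoal-stripped FBS were cultured ≥3 days and then given bifunctional compound for 1.5 h. Lysates went onto AR-antibody-coated plates. Bound CBP (or p300) was detected with a rabbit antibody plus HRP anti-rabbit, using QuantaRed chemifluorescence (ex 570/em 585) read immediately, at 5 min and at 15 min.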

Sequence of AR / CBP ternary complex (P10275 whole entry): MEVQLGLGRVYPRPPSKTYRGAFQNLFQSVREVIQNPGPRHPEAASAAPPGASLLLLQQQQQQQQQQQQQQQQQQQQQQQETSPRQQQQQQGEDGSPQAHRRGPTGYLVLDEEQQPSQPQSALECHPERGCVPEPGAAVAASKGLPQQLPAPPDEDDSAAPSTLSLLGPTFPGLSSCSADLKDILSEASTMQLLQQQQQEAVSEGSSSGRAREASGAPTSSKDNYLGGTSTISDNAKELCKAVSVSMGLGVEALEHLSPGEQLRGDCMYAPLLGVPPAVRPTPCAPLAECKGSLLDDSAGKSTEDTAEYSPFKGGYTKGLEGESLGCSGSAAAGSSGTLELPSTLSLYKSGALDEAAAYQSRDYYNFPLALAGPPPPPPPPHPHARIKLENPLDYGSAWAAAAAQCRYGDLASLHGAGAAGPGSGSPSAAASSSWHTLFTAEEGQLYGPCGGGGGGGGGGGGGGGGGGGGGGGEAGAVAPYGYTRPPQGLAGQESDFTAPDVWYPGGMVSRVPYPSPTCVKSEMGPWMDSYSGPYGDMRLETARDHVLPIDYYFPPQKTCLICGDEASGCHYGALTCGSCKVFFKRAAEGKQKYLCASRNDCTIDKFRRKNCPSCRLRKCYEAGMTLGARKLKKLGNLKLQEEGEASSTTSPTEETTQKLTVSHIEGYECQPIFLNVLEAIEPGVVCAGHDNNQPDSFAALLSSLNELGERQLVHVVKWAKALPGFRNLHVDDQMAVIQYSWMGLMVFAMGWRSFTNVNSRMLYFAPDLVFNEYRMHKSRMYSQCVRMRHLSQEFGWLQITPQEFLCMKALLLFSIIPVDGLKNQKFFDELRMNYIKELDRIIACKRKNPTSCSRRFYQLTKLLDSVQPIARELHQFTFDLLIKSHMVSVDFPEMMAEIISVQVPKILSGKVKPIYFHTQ
Sequence of AR / CBP ternary complex (Q92793 2-2442): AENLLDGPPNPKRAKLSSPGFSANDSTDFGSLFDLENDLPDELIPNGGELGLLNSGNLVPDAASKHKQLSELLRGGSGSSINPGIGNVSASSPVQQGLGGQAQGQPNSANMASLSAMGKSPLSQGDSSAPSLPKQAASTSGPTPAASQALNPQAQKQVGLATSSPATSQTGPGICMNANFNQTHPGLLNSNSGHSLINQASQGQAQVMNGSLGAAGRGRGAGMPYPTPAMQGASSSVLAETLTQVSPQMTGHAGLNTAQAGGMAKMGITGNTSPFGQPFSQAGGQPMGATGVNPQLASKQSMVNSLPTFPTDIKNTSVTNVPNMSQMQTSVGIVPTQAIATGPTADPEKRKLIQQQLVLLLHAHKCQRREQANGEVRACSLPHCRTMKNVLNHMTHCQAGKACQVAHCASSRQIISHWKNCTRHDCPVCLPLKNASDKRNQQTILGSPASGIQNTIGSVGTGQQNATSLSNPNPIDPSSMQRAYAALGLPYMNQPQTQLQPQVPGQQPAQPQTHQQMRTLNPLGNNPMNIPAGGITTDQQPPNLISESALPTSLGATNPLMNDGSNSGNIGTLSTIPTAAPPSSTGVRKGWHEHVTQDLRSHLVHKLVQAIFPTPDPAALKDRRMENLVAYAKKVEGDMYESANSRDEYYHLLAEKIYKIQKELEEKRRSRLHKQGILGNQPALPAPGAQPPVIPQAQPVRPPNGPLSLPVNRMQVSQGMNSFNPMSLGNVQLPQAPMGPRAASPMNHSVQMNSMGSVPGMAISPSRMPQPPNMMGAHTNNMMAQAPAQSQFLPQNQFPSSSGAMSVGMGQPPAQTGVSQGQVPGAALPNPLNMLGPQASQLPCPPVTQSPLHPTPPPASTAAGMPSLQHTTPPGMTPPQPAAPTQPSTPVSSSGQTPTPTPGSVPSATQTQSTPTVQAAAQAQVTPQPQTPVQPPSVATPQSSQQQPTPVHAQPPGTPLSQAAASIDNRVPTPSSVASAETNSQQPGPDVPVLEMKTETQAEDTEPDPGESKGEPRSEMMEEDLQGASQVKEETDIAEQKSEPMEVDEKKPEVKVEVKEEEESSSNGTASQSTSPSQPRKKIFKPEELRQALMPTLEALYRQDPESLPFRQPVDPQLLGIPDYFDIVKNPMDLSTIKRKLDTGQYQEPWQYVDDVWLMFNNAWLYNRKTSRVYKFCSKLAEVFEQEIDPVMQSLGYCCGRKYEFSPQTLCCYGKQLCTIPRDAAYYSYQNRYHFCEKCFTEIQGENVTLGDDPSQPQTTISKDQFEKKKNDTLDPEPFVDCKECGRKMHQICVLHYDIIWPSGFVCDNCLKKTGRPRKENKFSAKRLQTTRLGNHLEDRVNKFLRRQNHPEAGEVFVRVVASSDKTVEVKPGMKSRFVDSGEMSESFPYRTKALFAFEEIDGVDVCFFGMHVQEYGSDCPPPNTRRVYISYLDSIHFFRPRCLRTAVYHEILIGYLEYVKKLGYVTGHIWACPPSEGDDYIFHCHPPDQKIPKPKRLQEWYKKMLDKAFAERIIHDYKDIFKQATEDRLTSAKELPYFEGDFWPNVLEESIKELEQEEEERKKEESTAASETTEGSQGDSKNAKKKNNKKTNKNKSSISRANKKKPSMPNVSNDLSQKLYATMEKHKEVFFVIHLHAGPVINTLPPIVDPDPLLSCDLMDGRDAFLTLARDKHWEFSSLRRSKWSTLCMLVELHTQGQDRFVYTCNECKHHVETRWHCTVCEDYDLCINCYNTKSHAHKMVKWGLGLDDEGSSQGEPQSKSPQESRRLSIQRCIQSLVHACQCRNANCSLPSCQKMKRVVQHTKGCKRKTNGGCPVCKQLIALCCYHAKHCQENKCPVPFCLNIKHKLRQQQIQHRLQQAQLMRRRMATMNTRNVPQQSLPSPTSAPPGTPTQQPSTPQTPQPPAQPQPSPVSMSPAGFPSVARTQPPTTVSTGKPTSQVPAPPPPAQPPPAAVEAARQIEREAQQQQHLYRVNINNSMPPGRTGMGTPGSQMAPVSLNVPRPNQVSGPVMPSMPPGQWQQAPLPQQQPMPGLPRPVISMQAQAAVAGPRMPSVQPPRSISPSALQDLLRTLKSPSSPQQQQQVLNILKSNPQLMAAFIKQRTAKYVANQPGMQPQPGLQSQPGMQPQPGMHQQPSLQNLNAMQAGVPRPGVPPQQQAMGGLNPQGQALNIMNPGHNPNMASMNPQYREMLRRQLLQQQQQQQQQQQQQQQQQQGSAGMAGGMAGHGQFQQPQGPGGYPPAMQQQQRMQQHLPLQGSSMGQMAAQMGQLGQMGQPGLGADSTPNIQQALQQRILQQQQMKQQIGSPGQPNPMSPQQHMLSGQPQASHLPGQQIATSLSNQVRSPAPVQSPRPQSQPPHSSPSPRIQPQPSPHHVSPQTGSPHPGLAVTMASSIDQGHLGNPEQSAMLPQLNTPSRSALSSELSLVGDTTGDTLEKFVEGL

| Structure (SMILES) | IC50 (VCaP cells) | IC50 (HEK-293 cells) | EC50 (AR / CBP ternary complex) |
| --- | --- | --- | --- |
| CC(=O)N1CCc2c(c(N3CCCc4cc(-c5cnn(C)c5)c(C(F)F)cc43)nn2C2CCN(C(=O)COC3CCN(c4ccc(C(=O)N[C@H]5CC[C@H](Oc6ccc(C#N)c(Cl)c6)CC5)nn4)CC3)CC2)C1 [Compound 1, 6-[4-[2-[4-[5-acetyl-3-[7-(difluoromethyl)-6-(1-methylpyrazol-4-yl)-3,4-dihydro-2H-quinolin-1-yl]-6,7-dihydro-4H-pyrazolo[4,3-c]pyridin-1-yl]-1-piperidyl]-2-oxo-ethoxy]-1-piperidyl]-N-[4-(3-chloro-4-cyano-phenoxy)cyclohexyl]pyridazine-3-carboxamide] | ≤ 0.1 nM | > 10000 nM | < 1 nM |
| CC(=O)N1CCc2c(c(N3CCCc4cc(-c5cnn(C)c5)c(C)cc43)nn2C2CCN(CC3CCN(c4ccc(C(=O)N[C@H]5CC[C@H](Oc6ccc(C#N)c(Cl)c6C)CC5)nn4)CC3(C)C)CC2)C1 (stereo partly drawn) [Compound 291, 6-[4-[[4-[5-acetyl-3-[7-methyl-6-(1-methylpyrazol-4-yl)-3,4-dihydro-2H-quinolin-1-yl]-6,7-dihydro-4H-pyrazolo[4,3-c]pyridin-1-yl]-1-piperidyl]methyl]-3,3-dimethyl-1-piperidyl]-N-[4-(3-chloro-4-cyano-2-methyl-phenoxy)cyclohexyl]pyridazine-3-carboxamide] | ≤ 0.1 nM | – | < 1 nM |
| CC(=O)N1CCc2c(c(N3CCCc4cc(-c5cnn(C)c5)c(C)cc43)nn2C2CCN(CC3CCN(c4ccc(C(=O)N[C@H]5CC[C@H](Oc6ccc(C#N)c(C)c6C)CC5)nn4)CC3(C)C)CC2)C1 (stereo partly drawn) [Compound 292, 6-[4-[[4-[5-acetyl-3-[7-methyl-6-(1-methylpyrazol-4-yl)-3,4-dihydro-2H-quinolin-1-yl]-6,7-dihydro-4H-pyrazolo[4,3-c]pyridin-1-yl]-1-piperidyl]methyl]-3,3-dimethyl-1-piperidyl]-N-[4-(4-cyano-2,3-dimethyl-phenoxy)cyclohexyl]pyridazine-3-carboxamide] | ≤ 0.1 nM | – | < 1 nM |
| CC(=O)N1CCc2c(c(N3CCCc4cc(-c5cnn(C)c5)c(C)cc43)nn2C2CCN(CC3CCN(c4ccc(C(=O)N[C@H]5CC[C@H](Oc6ccc(C#N)c(C)c6)CC5)nn4)CC3(C)C)CC2)C1 (stereo partly drawn) [Compound 293, 6-[4-[[4-[5-acetyl-3-[7-methyl-6-(1-methylpyrazol-4-yl)-3,4-dihydro-2H-quinolin-1-yl]-6,7-dihydro-4H-pyrazolo[4,3-c]pyridin-1-yl]-1-piperidyl]methyl]-3,3-dimethyl-1-piperidyl]-N-[4-(4-cyano-3-methyl-phenoxy)cyclohexyl]pyridazine-3-carboxamide] | ≤ 0.1 nM | – | < 1 nM |
| CC(=O)N1CCc2c(c(N3CCCc4cc(-c5cnn(C)c5)c(C)cc43)nn2C2CCN(C3CCC4(CC3)CN(c3ccc(C(=O)N[C@H]5CC[C@H](Oc6ccc(C#N)c(C)c6)CC5)nn3)C4)CC2)C1 [Compound 298, 6-[7-[4-[5-acetyl-3-[7-methyl-6-(1-methylpyrazol-4-yl)-3,4-dihydro-2H-quinolin-1-yl]-6,7-dihydro-4H-pyrazolo[4,3-c]pyridin-1-yl]-1-piperidyl]-2-azaspiro[3.5]nonan-2-yl]-N-[4-(4-cyano-3-methyl-phenoxy)cyclohexyl] pyridazine-3-carboxamide] | 0.1 to 1 nM | – | < 1 nM |
| CC(=O)N1CCc2c(c(N3CCCc4cc(-c5cnn(C)c5)c(C)cc43)nn2C2CCN(C3CCC4(CC3)CN(c3ccc(C(=O)N[C@H]5CC[C@H](Oc6ccc(C#N)c(C)c6C)CC5)nn3)C4)CC2)C1 [Compound 299] | ≤ 0.1 nM | – | < 1 nM |
| CC(=O)N1CCc2c(c(N3CCCc4cc(-c5cnn(C)c5)c(C)cc43)nn2C2CCN(C3CCC4(CC3)CN(c3ccc(C(=O)N[C@H]5CC[C@H](Oc6ccc(C#N)c(Cl)c6C)CC5)nn3)C4)CC2)C1 [Compound 300, 6-[7-[4-[5-acetyl-3-[7-methyl-6-(1-methylpyrazol-4-yl)-3,4-dihydro-2H-quinolin-1-yl]-6,7-dihydro-4H-pyrazolo[4,3-c]pyridin-1-yl]-1-piperidyl]-2-azaspiro[3.5]nonan-2-yl]-N-[4-(3-chloro-4-cyano-2-methyl-phenoxy)cyclohexyl]pyridazine-3-carboxamide] | ≤ 0.1 nM | – | < 1 nM |
